Measurements reported in US20050187409A1, “Inhibitors of RNase P proteins as antibacterial compounds” (priority 2003, published 2005).
≈ marks a conversion by molar mass, not a printed value. Where “and” joins values, the source holds several entries; their conditions need not be identical. Equal values may be shown once. Read-outs that look alike come from different tables or passages of the source.

What was measured:
[1] = biological target: T1, N. gonorrhoeae RNase P holoenzyme (Neisseria gonorrhoeae, UniProt Q5F4W3); experiment: biochemical; settings: 32P-labelled pGln substrate, room temperature; read-out: N. gonorrhoeae Gel assay IC50(μM) (Example 16)
T1 sequence (Q5F4W3 1-121): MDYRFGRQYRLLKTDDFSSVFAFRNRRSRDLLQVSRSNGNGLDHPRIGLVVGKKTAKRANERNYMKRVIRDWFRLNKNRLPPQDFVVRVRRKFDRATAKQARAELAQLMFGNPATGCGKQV
Method: RNase P Inhibition Polyacrylamide Gel Assay
The substrate, the precursor of tRNA^Gln, (pGln), from Synechocystis (Pascual and Vioque, 1999), was synthesized in vitro from the corresponding cDNA by T7 RNA polymerase in the presence of α^32P-GTP. Each control RNase P reaction of 10 μl contained 50 mM Tris-HCl (pH 7.8), 10 mM MgCl2, 100 mM NH4Cl, 1 mM dithiothreitol, and 0.4-1.0 pmol pGln substrate, radiolabeled to a specific activity of 1000-10,000 cpm/pmol. The reaction mixture, containing 0.1-1 nM holoenzyme, was incubated for 5-60 min at room temperature (18-24° C.), and the reaction was terminated by addition of an equal volume of 40 mM EDTA/8 M urea. The samples were electrophoresed in denaturing 8% polyacrylamide gels. The activity was quantified by exposure of the gel to a phosphorimaging screen. For test reactions that require the addition of compounds, the RNA subunits were pre-incubated with compound for 10 min at room temperature in the presence of buffer, followed by addition of the protein subunit. After a further 10 minutes of incubation, the radiolabeled substrate was added, and the reaction initiated. Products were analyzed as just described. The IC50 was the concentration of compound that was required to inhibit RNase P activity by 50%.

[2] = Cellular toxicity assay (MTS) on PBMC; format: cell-based, human; settings: human, peripheral blood mononuclear cells (PBMC); 24 hours incubation, MTS reagent; read-out: PBMC's TC50
Method: Compounds of the invention (see Table 6) were assayed for cellular toxicity as follows. Whole blood was drawn from a volunteer, and the red cells were separated from the buffy coat cells by centrifugation over ficoll-paque. The resulting peripheral blood mononuclear cells (PBMC) were collected from the interface and washed extensively with PBS by centrifugation to remove platelets and cellular debris. The cells were then plated in 96-well tissue culture plates at a density of 5×10^5 cells per mL at 200 μL per well. After an hour incubation, the candidate compounds were added at the appropriate concentrations diluted from DMSO stocks into assay buffer (RPMI medium supplemented with 10% FCS). The cells were incubated at 37° C., 100% humidity and 5% CO2 for 24 hours at which time MTS reagent was added per the manufacturer's (Promega) instructions. After 2-3 hours incubation the optical density of the wells was read on a spectrophotometer. […] The data are evaluated using equation 2 as described in Example 17, where bacterial cells are replaced by PBMC cells in the measurements. The data describes the toxicity of these compounds to a representative human cell population (PBMC's).

S. pyogenes = experiment: Bacterial inhibition assay (growth, OD readout); format: cell-based; settings: CAMHB-3% LHB medium, 35° C., 16-20 hours
Method: (§1) Compounds of the invention (see Table 5) were assayed for their ability to inhibit bacterial growth. Compounds were diluted from 10 mM DMSO stocks to 3 mM and 1 mM in DMSO. The compounds were further diluted from these stocks into saline for 200, 120, and 20 μM stocks. Control antibiotics were diluted similarly. Overnight cultures of bacteria were made in the following manner. N. gonorrhea was streaked onto a chocolate agar plate and incubated at 35° C./5% CO2. Rather than make an overnight culture of S. pyogenes, a loopful of S. pyogenes from a blood plate or a stock plate was used the following day for direct cell suspension.
(§2) On the following day bacteria were prepared by dilution into saline with O.D. […] readings taken to determine the concentration of the bacteria. CFUs (colony forming units) were determined using the formula: CFU/mL=OD625×(1.5×10^8 CFU/mL/OD McFarland std)×dilution. The four bacterial cultures were diluted initially to 5.5×10^7 CFU/mL. The bacteria were then further diluted into medium to 5.5×10^5 CFU/mL for S. pyogenes and 5.5×10^6 CFU/mL for N. gonorrhea. S. pyogenes and N. gonorrhea were grown in CAMHB-3% LHB medium. The bacteria were added one per plate at 200 μL per well. Compounds were added in 10 μL aliquots for final concentrations of 10, 3, and 1 μM in duplicate. Control antibiotics, penicillin for S. pyogenes and ciprofloxacin for N. gonorrhea, were added from 0.8 mg/ml to 0.003 mg/ml. Plates were incubated at 35° C. with O2 for 16-20 hours for S. pyogenes, and read at OD665 in a Victor2 plate reader. Plates were incubated at 35° C. with 5% CO2 for 24 hours for N. gonorrhea at which time 40 μL of MTS reagent is added per well and incubated for 1 hour in same incubator. The plates were read at OD490. Compounds were tested at 1 μM, 3 μM, and 10 μM concentrations. The results, which are expressed as a percentage of the control, were calculated using equation 2. In this equation, O.D. is optical density; (O.D. compounds+bacteria) is the optical density observed for bacteria grown in the presence of a compound of the invention; (O.D. blank) is the optical density in the absence of bacteria; and (O.D. bacteria) is the optical density observed for bacteria growing uninhibited. Other RNase P inhibitors may be tested similarly using any bacteria of interest. [formula]

[3] = biological target: N. gonorrhea RNase P (M1 RNA + C5 protein) (Neisseria gonorrhoeae, UniProt Q5F4W3); experiment: Time resolved fluorescence (TRF) RNase P inhibition assay; format: biochemical; settings: 30 min enzyme reaction, ptGLN substrate
Excerpt: The ability of compounds of the invention to inhibit RNase P enzymes can be assessed by standard techniques. For example, the cleavage of ptRNA^Gln by the enzyme N. Gonorrhea RNase P, can be monitored in the presence and absence of a candidate compound as described in the Example 15. The progress of the RNase P-mediated cleavage reaction can be assessed by measuring the […] hybridized to the cleaved substrate.
Time Resolved Fluorescence RNase P Inhibition Assay
96-well Nunc MaxiSorp FluoroNunc plates were coated with 50 μl/well of 1 μg/ml of streptavidin in base buffer (150 mM KCl, 5 mM MgCl2, 50 mM Tris, pH 7.6) and incubated overnight. The plates were washed using TRF.96 protocol, and then blocked with 150 μl of a 1 mg/ml BSA solution in base buffer and incubated with shaking for sixty minutes. The plates were then washed twice with base buffer plus 0.01% Tween20. 50 μl of 40 nM T17-bt (biotinylated DNA oligonucleotide complementary to the RNaseP substrate leader sequence used to capture intact RNaseP substrate) was then added to all wells, and the plates were incubated with shaking for 1 hr.
A 0.4 nM solution of N. gonorrhea M1 RNA was made from a 1 μM stock solution. A 0.5 nM solution of N. gonorrhea C5 protein is made by diluting a 10 μM stock. ΔUL-ptGLN UTP-bt (10 μM stock) was diluted into PA buffer for a concentration of 40 nM.
Compounds were serially diluted in DMSO from 20 mM stocks to 6, 2, 0.6, 0.2, and 0.06 mM dilutions. These titrations were then diluted (2 μl to 100) in PA buffer, and 12.5 μl of each concentration was added in duplicate to a 96-well V-bottom polypropylene plate. The highest concentration was put in row G and the lowest in row B. Rows A & H received 12.5 μl of DMSO/PA buffer.
The enzyme reaction was initiated in the V-bottom polypropylene plates containing compound dilutions by adding 12.5 μl of the N. gonorrhea M1 solution to rows A-G. PA buffer was added to row H. 12.5 μl of the C5 solution was added similarly to the M1 solutions. 12.5 μl of the substrate solution was then added to all wells. The plates were incubated for 30 minutes at which time 12.5 μl of stop buffer was added to all wells. (Stop buffer: 500 μg/ml polyC/50 nM SA-Eu in 335 mM MgCl2 PA buffer).
The T17-biotin-coated plate was washed three times, and 37.5 μl of 75 mM MgCl2 PA buffer was added to each well. After 30 minutes incubation with the stop buffer, 12.5 μl from all of the enzyme reaction wells was transferred to the T17 plates. The plates were then incubated for 1.5 hr at room temperature with shaking. The plates were washed three times and 40 μl of Delfia enhancement solution (Wallac Oy) was added to all wells. The plates were then read on the Victor 2 plate reader.

N. gonorrhoeae = experiment: Bacterial inhibition assay (growth, MTS readout); format: cell-based; settings: CAMHB-3% LHB medium, 35° C., 5% CO2, 24 hours
Method: as §1, §2

[4] = read-out: N. gonorrhoeae TRF IC50(μM) (Example 15)

| Compound | IC50 [1] | CC50 at 24 h [2] [µM] | MIC (S. pyogenes; Streptococcus pyogenes) [µM] | IC50 [3, 4] [µM] | MIC (N. gonorrhoeae; Neisseria gonorrhoeae) [µM] | IC50 ([3]; N. gonorrhoeae TRF IC50(μM) (Example 15)) [µM] | MIC (S. pyogenes) [µM] | MIC (N. gonorrhoeae) [µM] | S. pyogenes MIC(μM) (S. pyogenes) |
| --- | --- | --- | --- | --- | --- | --- | --- | --- | --- |
| CC(=NNC(=N)N)c1ccc(C(=O)Nc2cccc(C(C)=NNC(=N)N)c2)cc1 [MES 10648, Bisguanylhydrazone of 4-acetyl-N-(3-acetylphenyl)benzamide] | 2 µM | > 100 | 1 (≈ 0.393 µg/mL) | 5 | 10 (≈ 3.93 µg/mL) | – | – | – | – |
| CC(=NNC(=N)N)c1cccc(NC(=O)[C@@H]2Cc3ccccc3CN2C(=O)c2cccc(C(C)=NNC(=N)N)c2)c1 [MES 10848, Bisguanylhydrazone of (S)-2-(3-acetylbenzoyl)-N-(3-acetylphenyl)tetrahydro-isoquinoline-3-carboxamide] | 6 µM | > 100 | 10 (≈ 5.53 µg/mL) | 3 | 100 (≈ 55.3 µg/mL) | – | – | – | – |
| CC(=NNC(=N)N)c1cccc(NC(=O)[C@H](Cc2ccc(-c3ccccc3)cc2)NC(=O)c2ccccc2)c1 [MES 10910, Guanylhydrazone of (S)-1-benzoyl-N-(3-acetylphenyl) biphenylalaninamide] | – | – | – | 7 | – | – | – | – | – |
| CC(=NNC(=N)N)c1cccc(NC(=O)[C@H](CCc2ccccc2)NC(=O)c2cccc(I)c2)c1 [MES 10914, Guanylhydrazone of (S)-1-(3-iodobenzoyl)-N-(3-acetylphenyl) homophenyl-alaninamide] | – | – | – | 6 | – | – | – | – | – |
| CC(=NNC(=N)N)c1cccc(NC(=O)c2cccc(-c3ccccc3)c2)c1 [MES 10915, Guanylhydrazone of N-(3-acetylphenyl)-3-biphenylcarboxamide] | 10 µM | – | – | – | – | 16 | – | – | – |
| CC(=NNC(=N)N)c1cccc(NC(=O)[C@@H]2CCCN2C(=O)c2cccc(C(C)=NNC(=N)N)c2)c1 [MES 10926, Bisguanylhydrazone of (S)-1-(3-acetylbenzoyl)-N-(3-acetylphenyl) prolinamide] | 100 µM | > 100 | 30 (≈ 14.7 µg/mL) | 43 | 80 (≈ 39.2 µg/mL) | – | – | – | – |
| CC(=NNC(=N)N)c1cccc(NC(=O)c2ccc(-c3ccccc3)cc2)c1 [MES 10938, Guanylhydrazone of N-(3-acetylphenyl)-4-biphenylcarboxamide] | – | – | – | 80 | – | – | – | – | – |
| CC(=NNC(=N)N)c1ccc(NC(=O)c2ccc(C(C)=NNC(=N)N)cc2)cc1 [MES 10948, Bisguanylhydrazone of 4-acetyl-N-(4-acetylphenyl)benzamide] | 2 µM and 1 µM | > 100 | 0.3 (≈ 0.118 µg/mL) | 3 | 3 (≈ 1.18 µg/mL) | – | – | – | – |
| CC(=NNC(=N)N)c1cccc(NC(=O)Nc2cccc(C(C)=NNC(=N)N)c2)c1 [MES 10949, Bisguanylhydrazone of N,N-bis(3-acetylphenyl)urea] | 30 µM | > 100 | 30 (≈ 12.3 µg/mL) | 6 | 100 (≈ 40.8 µg/mL) | – | – | – | – |
| CC(=NNC(=N)N)c1ccc(NC(=O)Nc2ccc(C(C)=NNC(=N)N)cc2)cc1 [MES 10950, Bisguanylhydrazone of N,N′-bis(4-acetylphenyl)urea] | 7 µM | > 100 | 10 (≈ 4.08 µg/mL) | 6 | 30 (≈ 12.3 µg/mL) | – | – | – | – |
| N=C1/C(=C/c2ccc(-c3ccc(C(=O)O)cc3)o2)C(=O)N=C2SC(c3ccccc3)=NN12 [MES 110392] | – | – | – | 2 | – | – | >100 | 100 (≈ 44.2 µg/mL) | – |
| CC(=O)Oc1cccc2ccc(/C=C/c3ccc(C(=O)O)cc3)nc12 [MES 110394] | – | – | – | 9 | – | – | – | 10 (≈ 3.33 µg/mL) | >100− μM |
| N=C1/C(=C/c2ccc(-c3ccc(C(=O)O)cc3)o2)C(=O)N=C2SC(Cc3cccs3)=NN12 [MES 110410] | – | – | – | 15 | – | – | >100 | 30 (≈ 13.9 µg/mL) | – |
| O=C(O)c1ccc(-c2nc(-c3ccc(-c4nc(-c5ccc(C(=O)O)cc5)[nH]c4-c4ccccc4)cc3)c(-c3ccccc3)[nH]2)cc1 [MES 110417] | – | – | – | 10 | – | – | >100 | 30 (≈ 18.1 µg/mL) | – |
| O=C(O)c1ccc(-c2ccc(/C=C3\S/C(=N\c4ccccc4)N(c4ccccc4)C3=O)o2)cc1 [MES 110430] | – | – | – | 7 | – | – | >100 | 30 (≈ 14 µg/mL) | – |
